Data as given in EP1144368B1, “ACETYLENIC ALPHA-AMINO ACID-BASED SULFONAMIDE HYDROXAMIC ACID TACE INHIBITORS” (priority 1999, dated 2000).
Like-named read-outs stand apart in the source and are kept apart here.

Molecular target: TACE (Homo sapiens, UniProt P78536)
Assay: TACE inhibition (fluorescent peptidyl substrate)
Assay type: biochemical
Conditions: for inhibition at 1 µM: read-out: % Inhibition at 1 uM
[1] = In Vitro Inhibition of TACE, 1 uM
[2] = Table 15: In Vitro Inhibition of TACE

Chain of TACE (P78536 215-824): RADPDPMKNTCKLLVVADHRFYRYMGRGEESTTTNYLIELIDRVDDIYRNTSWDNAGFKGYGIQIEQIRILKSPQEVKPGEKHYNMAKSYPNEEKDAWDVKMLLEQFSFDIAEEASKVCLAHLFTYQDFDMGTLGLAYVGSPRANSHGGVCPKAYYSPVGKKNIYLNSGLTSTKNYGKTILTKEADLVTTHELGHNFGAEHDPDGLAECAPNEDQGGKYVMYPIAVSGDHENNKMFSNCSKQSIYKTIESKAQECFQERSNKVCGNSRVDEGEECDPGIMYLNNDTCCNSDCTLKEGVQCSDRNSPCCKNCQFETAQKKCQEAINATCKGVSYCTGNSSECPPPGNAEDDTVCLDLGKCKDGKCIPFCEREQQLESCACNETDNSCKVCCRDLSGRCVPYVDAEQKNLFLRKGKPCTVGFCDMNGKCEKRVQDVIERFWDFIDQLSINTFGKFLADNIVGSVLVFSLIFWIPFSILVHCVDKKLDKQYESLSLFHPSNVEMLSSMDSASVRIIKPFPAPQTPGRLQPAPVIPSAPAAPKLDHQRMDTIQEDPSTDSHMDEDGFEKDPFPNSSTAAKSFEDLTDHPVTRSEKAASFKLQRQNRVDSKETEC
Method: Using 96-well black microtiter plates, each well receives a solution composed of 10 µL TACE (final concentration 1µg/mL), 70µL Tris buffer, pH 7.4 containing 10% glycerol (final concentration 10 mM), and 10 µL of test compound solution in DMSO (final concentration 1µM, DMSO concentration <1%) and incubated for 10 minutes at room temperature.
The reaction is read (excitation 340 nm, emission 420 nm) for 10 min. and the increase in fluorescence over time is plotted as a linear line. The slope of the line is calculated and represents the reaction rate.
The linearity of the reaction rate is confirmed (r^2 >0.85). The mean (x±sem) of the control rate is calculated and compared for statistical significance (p<0.05) with drug-treated rates using Dunnett's multiple comparison test.

CC#CCOc1ccc(S(=O)(=O)N[C@H](CSCc2ccc(OC)cc2)C(=O)NO)cc1 [Example 302]
inhibition at 1 µM [1]: 3%

CC#CCOc1ccc(S(=O)(=O)N[C@@H](CCCNC(=N)N)C(=O)NO)cc1 [Example 64]
inhibition at 1 µM [1]: 67.4%

CC#CCOc1ccc(S(=O)(=O)N[C@@H](CC(N)=O)C(=O)NO)cc1 [Example 66]
inhibition at 1 µM [1]: 45.6%

CC#CCOc1ccc(S(=O)(=O)N[C@H](C(=O)NO)[C@@H](C)O)cc1 [Example 100]
inhibition at 1 µM: 15.4%

CC#CCOc1ccc(S(=O)(=O)N[C@H](CC(C)C)C(=O)NO)cc1 [Example 79]
inhibition at 1 µM [1]: 107%
IC50 [2]: 5.7 ± 2.5 nM

CC#CCOc1ccc(S(=O)(=O)N[C@@H](CCN)C(=O)NO)cc1 [Example 70]
inhibition at 1 µM [1]: 21.1%

CC#CCOc1ccc(S(=O)(=O)N[C@H](CC2CCCCC2)C(=O)NO)cc1 [Example 77]
inhibition at 1 µM [1]: 105%

CC#CCOc1ccc(S(=O)(=O)N[C@@H](CC(=O)OC2CCCCC2)C(=O)NO)cc1 [Example 68]
inhibition at 1 µM [1]: 70.4%

CC#CCOc1ccc(S(=O)(=O)N2C[C@H](OCc3ccccc3)C[C@H]2C(=O)NO)cc1 [Example 88]
inhibition at 1 µM [1]: 8.4%

CC#CCOc1ccc(S(=O)(=O)N[C@@H](Cc2c[nH]c3ccccc23)C(=O)NO)cc1 [Example 101]
inhibition at 1 µM [1]: 30.2%

CC#CCOc1ccc(S(=O)(=O)N[C@@H](CC2CCCCC2)C(=O)NO)cc1 [Example 71]
inhibition at 1 µM [1]: 86.7%

CC#CCOc1ccc(S(=O)(=O)N[C@@H](CSCc2ccc(OC)cc2)C(=O)NO)cc1 [Example 74]
inhibition at 1 µM [1]: 73.8%

CC#CCOc1ccc(S(=O)(=O)N[C@H](Cc2ccc(O)cc2)C(=O)NO)cc1 [Example 84]
inhibition at 1 µM [1]: 101%

CC#CCOc1ccc(S(=O)(=O)N[C@H](CC(=O)O)C(=O)NO)cc1 [Example 298]
inhibition at 1 µM [1]: 40%

CC#CCOc1ccc(S(=O)(=O)N[C@H](CC(N)=O)C(=O)NO)cc1 [Example 75]
inhibition at 1 µM [1]: 55.8%

CC#CCOc1ccc(S(=O)(=O)N[C@@H](Cc2cnc[nH]2)C(=O)NO)cc1 [Example 87]
inhibition at 1 µM [1]: 47.8%

CC#CCOc1ccc(S(=O)(=O)N[C@@H](CC(=O)O)C(=O)NO)cc1 [Example 67]
inhibition at 1 µM [1]: 46.2%

CC#CCOc1ccc(S(=O)(=O)N[C@@H](CCCCN)C(=O)NO)cc1 [Example 92]
inhibition at 1 µM [1]: 102%

CC#CCOc1ccc(S(=O)(=O)N[C@@H](CC)C(=O)NO)cc1 [Example 63]
inhibition at 1 µM [1]: 47.6%

CC#CCOc1ccc(S(=O)(=O)N[C@H](CCCNC(=O)Oc2ccc(OC)cc2)C(=O)NO)cc1 [Example 372, 4-Methoxyphenyl (4R)-4-({[4-(but-2-ynyloxy)phenyl]sulfonyl}amino)-5-(hydroxyamino)-5-oxopentylcarbamate]
IC50: 8.4 nM

CC#CCOc1ccc(S(=O)(=O)N[C@@H](C)C(=O)NO)cc1 [Example 62B, L-2-(4-But-2-ynyloxy-benzenesulfonylamino)-N-hydroxy-propionamide]
inhibition at 1 µM: 46.2%

CC#CCOc1ccc(S(=O)(=O)N[C@@H](Cc2ccc(OCc3ccccc3)cc2)C(=O)NO)cc1 [Example 103]
inhibition at 1 µM [1]: 52.8%

CC#CCOc1ccc(S(=O)(=O)N[C@@H](CCCC)C(=O)NO)cc1 [Example 93]
inhibition at 1 µM [1]: 61.7%

CC#CCOc1ccc(S(=O)(=O)N2CCC[C@@H]2C(=O)NO)cc1 [Example 82]
inhibition at 1 µM [1]: 98.4%

CC#CCOc1ccc(S(=O)(=O)N[C@H](Cc2ccc(F)c(F)c2)C(=O)NO)cc1 [Example 315]
IC50 [2]: 5.7 nM

CC#CCOc1ccc(S(=O)(=O)N[C@@H](CC(C)C)C(=O)NO)cc1 [Example 90]
inhibition at 1 µM [1]: 58.9%

CC#CCOc1ccc(S(=O)(=O)N[C@H](CCCN)C(=O)NO)cc1 [Example 76]
inhibition at 1 µM [1]: 29.7%

CC#CCOc1ccc(S(=O)(=O)N[C@H](C(=O)NO)[C@@H](C)OCc2ccccc2)cc1 [Example 99]
inhibition at 1 µM [1]: 28.5%

CC#CCOc1ccc(S(=O)(=O)N[C@H](CCSC)C(=O)NO)cc1 [Example 80]
inhibition at 1 µM [1]: 105%

CC#CCOc1ccc(S(=O)(=O)N[C@@H](CSC(C)(C)C)C(=O)NO)cc1 [Example 73]
inhibition at 1 µM [1]: 79%
IC50 [2]: 451 ± 31 nM
